One series concerns LEMD1 mRNA. The experiment in a line: LEMD1 mRNA expression after DNA demethylation. The class given is cell-based. As to conditions: lung cancer cell lines. As to the method: (§1) Cells were seeded at concentration of 1×10^5 for treatment with 5-aza-2′-CdR (R&D Systems INC., MN, USA) for 96 hours. For TNF-α (PeproTech, Rocky Hill. N.J.) stimulation, 1×10^6 cells were seeded for 24 hours and treated with different amounts of TNF-α for 6 hours.

The test system of another series is miR-135b expression. Briefly: Real-time RT-PCR of miR-135b after DNA demethylation. In kind it is cell-based. As to conditions: cancer cells treated 4 days. As to the method:
Cells were treated with different doses of 5-aza-2′-CdR (5′-aza) for 4 days, and total RNA was harvested for real time RT-PCR. Data are expressed as the mean±s.d.
as §1
(§2) Total RNA was isolated using TRIZOL reagent (Invitrogen, Carisbad, Calif.) according to the standard protocol. The mature miR-135b and endogenous control U6B were analyzed using TaqMan Micro RNA Assay (Applied Biosystems, Foster City, Calif.). Briefly, total RNA was reverse-transcribed via SuperScipt-III Reverse Transcriptase (Invitrogen, Carlsbad, Calif.). The cDNA was amplied with TaqMan 2× Universal Master Mix (Applied Biosystems), and miRNA-specific real-time PCR was performed using an ABI 7500 real-time PCR system.
(In general: In qPCR the cycle at which signal appears reflects the starting amount.)

Series [1] has as its system CL1-5-F4 cells. The experiment in a line: Real-time RT-PCR of miR-135b. The class given is cell-based, human. As to conditions: 6 hours. How it is done:
CL1-5-F4 cells were treated with different concentrations of TNF-α with or without BAY-117082 (5 or 10 μM) for 6 hours. Total RNA was harvested, and miR-135b expression was analyzed and analysis by real-time RT-PCR. Mean±s.d. is shown, *P<0.05; **P<0.005 by Student's t-test.
as §1, §2

The test system of series [2] is NF-κB binding site within the miR-135b promoter. The experiment in a line: Chromatin immunoprecipitation (ChIP) with anti-p65. In kind it is cell-based. As to conditions: 6 hours stimulation. As to the method: The cells were treated with indicated amounts of 5-aza-2′-CdR (upper panel) for 4 days or TNF-α (lower panel) for 6 hours before being subjected to chromatin immunoprecipitation (ChIP) with anti-p65 antibody and specific primers.
CL1-0 and H1299 cells were fixed with 1% formaldehyde and blocked by 125 mM glycine. The cells were resuspended in cell lysis buffer (5 mM HEPES, 85 mM KCl, 0.5% Triton X-100, 1 mM DTT, 1 mM PMSF, pH 8.0), followed by nucleic lysis buffer (50 mMTris-HCl, 10 mM EDTA, 1% SDS, 1 mM DTT, and protease inhibitor (Roche Applied Science, Mannheim, Germany)). The cell lysate was sonicated and clarified by centrifugation. The supernatant was diluted with protein G beads at 4° C. to pre-clear the solution Immunoprecipitation with anti-RelA (Abcam, Cambridge, UK) was performed at 4° C. overnight. DNA-protein complexes were than incubated with protein G agarose beads at 4° C. with constant rotation for 2 hours. Following immunoprecipitation, the beads were washed with a low-salt wash buffer, a high-salt wash buffer, a LiCl wash buffer, and, finally, a TE buffer. The immunoprecipitated complexes were eluted in a buffer containing 10 mM Tris pH 8.0, 300 mM NaCl. 5 mM EDTA, and 0.5% SDS at room temperature. The samples were then treated with proteinase K for 1 hour, followed by RNAse A. Next, the DNA was purified by phenol/chloroform extraction. […]

In another series the test system is H1299 cells. The experiment in a line: Real-time RT-PCR of miR-135b. The class given is cell-based. As to conditions: single treatment. As to the method: Cells were treated with or without 5-aza-2′-CdR for 4 days and re-seeded for TNF-α stimulation for 6 hours. Total RNA was harvested, and miR-135b expression was analyzed. Mean±s.d. is shown, *P<0.05; **P<0.005 by Student's t-test.
as §1, §2

The subject of series [3] is CL1-5-F4 cells. Briefly: Transwell invasion assay. In kind it is cell-based, human. As to conditions: CL1-5-F4 cells stably expressing sponge vs control sponge. How it is done:
CL1-5-F4 and Hop-62 cells were transfected with scramble (NC) of miR-135b-specific antagomir (Antago-135b) for 48 hours and the subjected to migration assays (FIG. 2d) and invasion assays (FIG. 2e) as described above. *P<0.05;**P<0.005 by Student's t-test.
CL1-5-F4 cells transfected with plasmids expressing either control or miR-135b sponges were analyzed using in vitro invasion assay. The average number of invading cells obtained in the transwell invasion assay is presented (n=3).
Transwell chambers ([…], BD Falcon, Franklin Lakes, N.J.) were coated with the appropriate amount of Matrigel (BD Biosciences, San Jose, Calif.). Next, 2.5×10^4 cells were suspended in NuSerum-containing media (Gibco BRL, Grand Island N.Y., USA), seeded in the chamber and cultured, Cells that invaded the chamber from top to bottom were fixed with methanol and stained with a solution of propidium iodine (Sigma-Aldrich, St. Louis, Mo.). The propidiumiodine-positive signal was quantified using Analytical Imaging Station software package. Each sample was assayed in triplicate.

The test system of series [4] is CL1-5-F4 cells. The experiment in a line: Lung metastasis after intravenous injection of sponge-expressing cells. As to conditions: SCID mice, i.v. sponge-producing CL1-5-F4 cells, 6 weeks, P=0.0126. The class given is in vivo. From the text: CL-5-F4 cells stably expressing control sponge or miR-135b sponge were intravenously injected into SCID mice (n=8). Representative pictures of murine whole lung (left) and H&E staining of lung sections (right) are presented.
Lung tumor nests in each group were examined and counted using a microscope (n=8); Mean±s.e.m. is shown,*P<0.05 by Student's t-test.
Animals were housed in a specific-pathgen-free environment in the animal facility of the Institute of Biomedical Sciences, Academia Sinica. All experimental procedures were in compliance with the Academia Sinica IACUC and Council of Agriculture Guidebook for the Care and Use of Laboratory Animals. For intravenous injections of the tumor cells, 1×10^6 cells were suspended in 0.1 mL of phosphate-buffered saline (PBS) and injected into lateral tail vein of SCID mice (10 mice per group). […] For the subcutaneous tumor assay, 1×10^6 CL1-0 cells or 2×10^5 H441 cells were subcutaneously injected in 0.1 mL of PBS into male nude mice (n=8 per group) and allowed to grow for 35 days to reach a volume of 50-200 mm^3 Control antagomir (Scramble) or anti-miR-135b antagomir (antago-135) was intravenously injected at a concentration of 10 μM in 0.1 mL of PBS 4 days after the cells were implanted. An example of a miR-135b antagomir is 5′mU(*)mC(*)mAmCmAmUmAmG-mGmAmAmUmGmAmAmAmAmGmCmC(*)mA(*)mU(*)mA(*)(3′-Ch1)3′ (SEQ ID NO:8). […]

Data on four molecules can be found in patent US20150141485A1, “PROGNOSIS AND TREATMENT OF LUNG CANCER USING miRNA-135b” (NATIONAL CHENG KUNG UNIVERSITY, priority 2013, published 2015).

For `Nc1ncn([C@H]2C[C@H](O)[C@@H](CO)O2)c(=O)n1` [5-aza-2′CdR], the “LEMD1 mRNA expression” value in the series with LEMD1 mRNA was “restored LEND1 mRNA expression in a dose-dependent manner”. Moreover, in the series with miR-135b expression, the miR-135b expression levels entry was “restored”.

As to `Cc1ccc(S(=O)(=O)/C=C/C#N)cc1` [BAY-117082], the “TNF-α-stimulated miR-135b expression” value in the series with CL1-5-F4 cells [1] (5 or 10 μM) is given as “negated”.

On to TNF-α, for which the “association of NF-κB with the miR-135b promoter” value in series [2] is given as “confirmed”. For the same molecule, the miR-135b expression entry in the series on H1299 cells and in the series with CL1-5-F4 cells [1] was “induced miR-135b expression was also observed” in each case.

B1: miR-135b sponge: miR-135-specific sponge carrying seven repeats of the miR-135b binding site (SEQ ID NO:12) (nucleic acid)
DNA: GTCGACTCACATAGGAACTTAAGCCATAATGCTCACATAGGAACTTAAGCCATAATGCTCACATAGGAACTTAAGCCATAATGCTCACATAGGAACTTAAGCCATAATGCTCACATAGGAACTTAAGCCATAATGCTCACATAGGAACTTAAGCCATAATGCTCACATAGGAACTTAAGCCATAATGTCGAC
Take B1: the “invasiveness in transwell invasion assay” value with CL1-5-F4 cells [3] is listed as “diminished the invasive”. Besides, the “number of tumor nodules developed in the mouse lungs” value in the series with CL1-5-F4 cells [4] is “significantly reduced”.
